Assay: Mixing of DMSO master stock into aqueous cryo-EM sample (precipitation)
Assay type: physicochemical
Details: 0.2 µL of 2.17 M DMSO stock into 40 µL DrOTOP1 sample, nominal ≤ 10.85 mM, 0.5% DMSO
Procedure: All protein purification steps were performed at 4 °C, and buffers were chilled on ice until use unless otherwise noted. Cell pellets were thawed in a room-temperature water bath and resuspended in Solubilization Buffer (25 mM Tris pH 8.0, 150 mM NaCl, 1% n-dodecyl-β-d-maltoside (DDM), 0.15% cholesteryl hemisuccinate (CHS), […], 1 mM phenylmethylsulfonyl Fluoride (PMSF), 2 µM pepstatin A and 2 mM dithiothreitol (DTT)) and was stirred for 1 – 3 h for detergent solubilization. The lysate was centrifuged at 40,000 × g and the supernatant was collected. […]. Next, the mixture was flowed over a gravity chromatography column, and flowthrough containing GFP-cleaved DrOTOP1 was collected and concentrated in a 100 kDa cutoff centrifugal concentrator (Amicon® Ultra or Pierce™) that was pre-equilibrated with SEC1 Buffer, to 500 µL volume. […] The resulting peaks were analyzed with sodium dodecyl sulfate-polyacrylamide gel electrophoresis (SDS-PAGE), and fractions corresponding to dimeric DrOTOP1 were pooled. […] The resulting peaks were analyzed with SDS-PAGE, and fractions corresponding to dimeric DrOTOP1 in lipid nanodisc were pooled and concentrated to 2 – 5 mg/mL with a 100 kDa cutoff centrifugal concentrator (Amicon® Ultra or Pierce™). […]

## C=C(C)COc1ccccc1NC(=O)c1nc[nH]c1C [C2.2]
  Solubility in aqueous buffer: visible precipitation formed

Source: article PMC12549899 (Nature Communications, 2025)
